According to PMC11591356, “Immunomodulatory Effects of the Tobacco Defensin NaD1” (Antibiotics, 2024):
Ends that are not written are not given here.

What was measured:
[1] = test system: PBMCs; test: Cytotoxicity assay, resazurin method, PBMCs; format: cell-based, human; details: for Cell viability: PBMCs, 24 h, resazurin
Text: (§1) Peripheral blood mononuclear cells (PBMCs) from healthy donors were purchased from American Type Culture Collection (ATCC PCS-800-011). Primary monocytes were isolated from PBMCs by adherence to the plastic surface. For that, PBMCs were thawed, resuspended in RPMI-1640 culture medium (Corning, Corning, NY, USA) without serum at a concentration of 2 × 10^6 cells/mL, seeded into the wells of a 24-well plate and placed in a humidified CO2-intubator (CellXpert C170i, Eppendorf, Hamburg, Germany) for 1 h. After that, non-adherent cells were removed from the wells and attached monocytes were thoroughly washed with PBS and cultured in a CO2-intubator in complete RPMI-1640 containing 10% human serum (HS Type AB, Capricorn Scientific, Ebsdorfergrund, Germany) and 1×antibiotic-antimycotic (1×AA) solution (Sigma, St. Louis, MO, USA).
The cytotoxic effects of the tobacco defensin NaD1 towards PBMCs or Caco-2 cells were investigated in 96-well plates using the resazurin method as previously described. In brief, 4 × 10^5 per well Caco-2 cells not in a monolayer as well as Caco-2 cells in a monolayer in DMEM/F12 (1:1) medium with 10% FBS or 2 × 10^6 PBMCs per well in RPMI-1640 also with 10% FBS were incubated with serial dilutions of NaD1 at final concentrations from 0.39 to 50 μM or from 2.1 to 180 μM for 24 h. After that, resazurin (Sigma, St. Louis, MO, USA) was added at a final concentration of 70 µM and the plates were incubated overnight (16–18 h). Untreated cells and cells treated by non-ionogenic detergent Triton X-100 were used as negative and positive controls, respectively. […] The cell viability was estimated by resorufin fluorescence registered at […] via the following equation: cell viability (%) = (Fsample/Fcontrol) × 100%. Experiment was carried out twice in duplicate.

[2] = test system: primary monocytes; test: Multiplex xMAP assessment of cytokine production by primary monocytes; format: cell-based, human; details: monocytes + 2 μM NaD1, 24 h
Text: as §1
For the study of the immunomodulatory properties of NaD1, monocytes and immature dendritic cells (moDC) were seeded into the wells of a 24-well plate at densities of 4 × 10^5 and 1.3 × 10^5 cells per well, respectively, in complete RPMI-1640 with 10% HS and AA solution. Then, 24 h later, the culture medium was replaced by a fresh one either with 2 μM NaD1 for stimulation of the cells or without if for the control wells. The cultures were kept in a humidified CO2-intubator for 24 h and then the samples of the culture media were taken and frozen.
The absolute levels of 48 cytokines, chemokines and growth factors were determined at a protein level by multiplex xMAP technology (Luminex, Austin, TX, USA). For this, a MILLIPLEX Human Panel A kit (HCYTA-60K-PX48, Merck, Darmstadt, Germany) was used and the following 48 analytes were evaluated in two biological replications: sCD40L, EGF, CCL11/Eotaxin-1, FGF-basic/FGF-2, Flt-3 ligand, CX3CL1/Fractalkine, G-CSF, GM-CSF, GROα, IFNα2, IFN-γ, IL-1α, IL-1β, IL-1RA, IL-2, IL-3, IL-4, IL-5, IL-6, IL-7, CXCL8/IL-8, IL-9, IL-10, IL-12(p40), IL-12(p70), IL-13, IL-15, IL-17A/CTLA8, IL-17E/IL-25, IL-17F, IL-18, IL-22, IL-27, CXCL10/IP-10, CCL2/MCP-1, CCL7/MCP-3, M-CSF, CCL22/MDC, CXCL9/MIG, CCL3/MIP-1α, CCL4/MIP-1β, PDGF-AA, PDGF-AB/BB, CCL5/RANTES, TGF-α, TNF-α, TNF-β and VEGF-A. The fluorescent data were obtained on a MAGPIX system (Merck) operated with xPONENT 4.2 software (Merck). Final analysis was performed in MILLIPLEX Analyst v5.1 software (Merck).

For “NaD1: Recombinant tobacco floral defensin NaD1 (UNIPROT Q8GTM0), obtained by heterologous expression in E. coli; FITC-labeled in the permeability assay (RECKTESNTFPGICITKPPCRKACISEKFTDGHCSKILRRCLCTKPC; cysteine pairing not given here; also: FITC label; UniProt Q8GTM0 26-72, looked up)”, the Cell viability ([1]; peptide 50 µM, twice in duplicate) was “approximately 90%”, the Cell viability ([1]; peptide 180 μM) was “more than 50%” and the “Cytotoxic effect against the tested immune and epithelial cells” value ([1]; peptide 12.5 µM, PBMCs and Caco-2) was “did not exhibit a cytotoxic effect”. For the same substance, the IL-2 absolute level ([2]; control 0.36) was 0.51 pg/mL, the TGF-a absolute level ([2]; control 0.73) was 0.73 pg/mL and the IFNg absolute level ([2]; control 0.81) was 1.13 pg/mL. The IL-5 absolute level ([2]; control 0.87) was <0.33↓ pg/ml, the IL-4 absolute level ([2]; control 1.25) was 1.44 pg/mL and the IL-18 absolute level ([2]; control 1.81) was 2.95 pg/mL. The TNFb absolute level ([2]; control 1.89) was 1.49 pg/mL, the “IL-12 (p40) absolute level” value ([2]; control 2.8) was 2.8 pg/mL and the IL-15 absolute level ([2]; control 4.96) was 4.19 pg/mL. For the same substance, the IL-9 absolute level ([2]; control 5.17) was 3.78 pg/mL, the IL-1a absolute level ([2]; control 5.33) was 7.2 pg/mL and the IL-10 absolute level ([2]; control 6.18) was 6.66 pg/mL. The G-CSF absolute level ([2]; control 10.38) was 6.59 pg/mL, the IL-13 absolute level ([2]; control 10.99) was 5.29 pg/mL and the IL-1b absolute level ([2]; control 12.11) was 12.11 pg/mL. The EGF absolute level ([2]; control 12.18) was 14.11 pg/mL, the IFNa2 absolute level ([2]; control 13.22) was 18.46 pg/mL and the IL-6 absolute level ([2]; control 27.82) was 26.88 pg/mL. It also gave an MIP-1a absolute level ([2]; control 29.35) of 27.88 pg/mL, an MIP-1b absolute level ([2]; control 29.57) of 34.19 pg/mL and a PDGF-AA absolute level ([2]; control 35.56) of 43.29 pg/mL. For the same substance, the Fractalkine absolute level ([2]; control 41.58) was 32.26 pg/mL, the FGF-2 absolute level ([2]; control 45.68) was 71.22 pg/mL and the VEGFa absolute level ([2]; control 54.1) was 52.47 pg/mL. For the same substance, the TNFa absolute level ([2]; control 77.73) was 79.94 pg/mL, the MCP-1 absolute level ([2]; control 82.06) was 75.95 pg/mL and the MCP-3 absolute level ([2]; control 120.38) was 119.63 pg/mL. For the same substance, the IL-27 absolute level ([2]; control 121.25) was 94.48 pg/mL, the RANTES absolute level ([2]; control 184.29) was 402.83 pg/mL and the IL-1RA absolute level ([2]; control 204.3) was 204.3 pg/mL. The IP-10 absolute level ([2]; control 290.24) was 390.23 pg/mL, the GROa absolute level ([2]; control 342.86) was 261.06 pg/mL and the MDC absolute level ([2]; control 879.89) was 759.82 pg/mL. The PDGF-AB/BB absolute level ([2]; control 984.71) was 1457 pg/mL, the MIG absolute level ([2]; control 1021) was 1301 pg/mL and the IL-8 absolute level ([2]; control 9181) was 6023 pg/mL. The IL-7 absolute level ([2]; control <0.32) was <0.32↓ pg/ml, the FLT-3L absolute level ([2]; control <0.61) was 0.69 pg/mL and the IL-3 absolute level ([2]; control <0.77) was <0.77↓ pg/ml. For the same substance, the IL-17A absolute level ([2]; control <1.00) was <1.00↓ pg/ml, the GM-CSF absolute level ([2]; control <1.30) was <1.30↓ pg/ml and the “IL-12 (p70) absolute level” value ([2]; control <1.79) was <1.79↓ pg/ml. For the same substance, the Eotaxin absolute level ([2]; control <3.80) was <3.80↓ pg/ml, the IL-22 absolute level ([2]; control <9.00) was <9.00↓ pg/ml and the IL-17F absolute level ([2]; control <16.98) was <16.98↓ pg/ml. For the same substance, the M-GSF absolute level ([2]; control <23.97) was <23.97↓ pg/ml, the IL-17E/IL-25 absolute level ([2]; control <25.82) was <25.82↓ pg/ml and the sCD40L absolute level ([2]; two biological replications, untreated control 151.36) was 151.36 pg/mL.
